Reference: ChEMBL document CHEMBL1201862, “PubChem BioAssay data set” (2004)
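Growth conditions: 96-well plates. Treatment: test compound, 48 hours, 5 concentrations. Analysis: linear interpolation between bracketing concentrations; unreached endpoints set to highest concentration. Abbreviation: GI50, concentration required for 50% inhibition of growth.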 Activity calls are given as the source filed them. Cut-off read from the data, not from the text of the source: active = GI50 up to about 1.1 µM and inactive = higher.

Experiments:
Experiment in all cases: growth of human tumour cells (NCI), 48 h
A549 = test system: A549
M14 = test system: M14
K562 = test system: K562
U-251 = test system: U-251
NCI-H522 = test system: NCI-H522
Malme-3M = test system: Malme-3M
HCT-116 = test system: HCT-116
SNB-75 = test system: SNB-75
NCI-H460 = test system: NCI-H460
SN12C = test system: SN12C
RXF 393 = test system: RXF 393
HOP-92 = test system: HOP-92
786-0 = test system: 786-0
OVCAR-3 = test system: OVCAR-3
SW-620 = test system: SW-620
MDA-N = test system: MDA-N
MDA-MB-435 = test system: MDA-MB-435
BT-549 = test system: BT-549
PC-3 = test system: PC-3

Measured: GI50

CC(=O)Nc1ccc(C(=O)NN2C(=O)C(Cl)C2c2ccccc2O)cc1 (stereo unspecified)
inactive: A549 > 100 µM | M14 23.8 µM | K562 > 100 µM | U-251 15.8 µM | NCI-H522 36.2 µM | Malme-3M 82.2 µM | HCT-116 > 100 µM | SNB-75 36.8 µM | NCI-H460 6.81 µM | SN12C > 100 µM | RXF 393 24.1 µM | HOP-92 47.6 µM | 786-0 9.06 µM | OVCAR-3 3.26 µM | SW-620 > 100 µM

CC(=O)NC1C(OC(C)C(=O)NC(C)C(=O)NC(CCC(=O)NCCCCCNc2ccc([N+](=O)[O-])c3[nH]c4ccccc4c(=O)c23)C(N)=O)C(O)C(CO)OC1(C)OCc1ccccc1 (stereo unspecified)
inactive: A549 50.8 µM | M14 > 100 µM | K562 45.3 µM | MDA-N > 100 µM | U-251 > 100 µM | NCI-H522 > 100 µM | MDA-MB-435 > 100 µM | Malme-3M > 100 µM | HCT-116 23.7 µM | SNB-75 > 100 µM | NCI-H460 26.7 µM | BT-549 > 100 µM | SN12C > 100 µM | RXF 393 87.1 µM | 786-0 38.7 µM | OVCAR-3 > 100 µM | PC-3 > 100 µM | SW-620 67.9 µM

CCn1ncc2c(=O)n3ncn(-c4ccc(Br)cc4)c3nc21
inactive: A549 > 100 µM | M14 > 100 µM | K562 > 100 µM | MDA-N > 100 µM | U-251 > 100 µM | NCI-H522 > 100 µM | MDA-MB-435 > 100 µM | Malme-3M > 100 µM | HCT-116 > 100 µM | SNB-75 > 100 µM | BT-549 > 100 µM | SN12C > 100 µM | RXF 393 > 100 µM | 786-0 > 100 µM | OVCAR-3 > 100 µM | PC-3 > 100 µM | SW-620 > 100 µM

CCC(C(=O)C(=O)OC)P1(=O)OC(C)(C)CN1C(C)(C)C (stereo unspecified)
inactive: A549 > 100 µM | M14 > 100 µM | K562 > 100 µM | U-251 > 100 µM | MDA-MB-435 > 100 µM | Malme-3M > 100 µM | HCT-116 > 100 µM | SNB-75 > 100 µM | NCI-H460 > 100 µM | BT-549 > 100 µM | 786-0 > 100 µM | OVCAR-3 > 100 µM | PC-3 > 100 µM | SW-620 > 100 µM

O=[N+]([O-])c1cccnc1NCC1(CO)CCCC1
inactive: A549 35.2 µM | K562 18.5 µM | MDA-N 21.4 µM | U-251 16.9 µM | NCI-H522 21.7 µM | MDA-MB-435 22.4 µM | Malme-3M 20.7 µM | HCT-116 26 µM | SNB-75 15.9 µM | NCI-H460 22.5 µM | SN12C 22.3 µM | RXF 393 > 10 µM | HOP-92 23.4 µM | 786-0 26.7 µM | OVCAR-3 19.8 µM | PC-3 19.1 µM | SW-620 25.7 µM

COc1ccc(C2SC(=N)Nc3c2c(C)nn3C(=O)Cc2ccccc2)cc1 (stereo unspecified)
inactive: A549 > 100 µM | M14 > 100 µM | K562 > 100 µM | MDA-N > 100 µM | NCI-H522 > 100 µM | MDA-MB-435 > 100 µM | Malme-3M > 100 µM | HCT-116 > 100 µM | SNB-75 10.9 µM | NCI-H460 > 100 µM | BT-549 > 100 µM | SN12C > 100 µM | 786-0 > 100 µM | PC-3 > 100 µM | SW-620 > 100 µM

Cc1nc(O)nc(N/N=C/c2c3ccccc3c(Cl)c3ccccc23)c1C(=O)Nc1ccc(Cl)cc1
inactive: A549 63.4 µM | M14 79.3 µM | K562 68.5 µM | MDA-N > 100 µM | U-251 37.9 µM | NCI-H522 > 100 µM | MDA-MB-435 > 100 µM | Malme-3M > 100 µM | HCT-116 65.9 µM | SNB-75 > 100 µM | NCI-H460 45.4 µM | BT-549 > 100 µM | SN12C > 100 µM | 786-0 36 µM | OVCAR-3 58.3 µM | PC-3 10.8 µM | SW-620 52.6 µM

COC(=O)CCCc1ccc2c(c1)CC1(C2)Cc2cc3c(cc2C1)CCCC3
inactive: A549 22.1 µM | M14 24.7 µM | K562 22.9 µM | MDA-N 16.8 µM | U-251 40.5 µM | NCI-H522 17.7 µM | MDA-MB-435 13.9 µM | Malme-3M 37.6 µM | HCT-116 3.8 µM | SN12C 40.6 µM | RXF 393 24.7 µM | HOP-92 26.1 µM | 786-0 43.9 µM | OVCAR-3 27.5 µM | PC-3 36.8 µM

Cc1ccccc1N(CCC#N)C1=NN(C(=O)CC(=O)Nc2ccccc2)C(c2ccccc2)C1 (stereo unspecified)
inactive: A549 > 100 µM | M14 > 100 µM | K562 > 100 µM | U-251 > 100 µM | NCI-H522 > 100 µM | Malme-3M > 100 µM | HCT-116 > 100 µM | SNB-75 35 µM | NCI-H460 > 100 µM | SN12C > 100 µM | RXF 393 > 100 µM | HOP-92 > 100 µM | 786-0 > 100 µM | OVCAR-3 > 100 µM | SW-620 > 100 µM

CC(C)(C)Nc1noc(=O)n1C(C)(C)C
inactive: A549 > 100 µM | M14 > 100 µM | K562 > 100 µM | MDA-N > 100 µM | U-251 > 100 µM | NCI-H522 > 100 µM | MDA-MB-435 > 100 µM | Malme-3M > 100 µM | HCT-116 > 100 µM | SNB-75 > 100 µM | NCI-H460 > 100 µM | SN12C > 100 µM | RXF 393 > 100 µM | HOP-92 > 100 µM | 786-0 > 100 µM | OVCAR-3 > 100 µM | PC-3 > 100 µM | SW-620 > 100 µM

Cc1cc2c(C)nn(Cc3ccccc3Cl)c2c(C#N)c1C
inactive: A549 > 100 µM | U-251 > 100 µM | Malme-3M > 100 µM | HCT-116 > 100 µM | SNB-75 > 100 µM | NCI-H460 > 100 µM | SN12C > 100 µM | RXF 393 > 100 µM | HOP-92 > 100 µM | 786-0 > 100 µM | OVCAR-3 > 100 µM | SW-620 > 100 µM

CC(=O)OCC1OC(n2c(C)c(C(C)=O)c(-c3cccc4ccccc34)c(C#N)c2=S)C(OC(C)=O)C(OC(C)=O)C1OC(C)=O (stereo unspecified)
inactive: A549 > 100 µM | M14 > 100 µM | K562 > 100 µM | MDA-N > 100 µM | U-251 > 100 µM | NCI-H522 > 100 µM | MDA-MB-435 > 100 µM | Malme-3M > 100 µM | HCT-116 > 100 µM | SNB-75 25.9 µM | NCI-H460 > 100 µM | SN12C > 100 µM | RXF 393 > 100 µM | HOP-92 17.5 µM | 786-0 > 100 µM | OVCAR-3 > 100 µM | PC-3 > 100 µM | SW-620 > 100 µM

C=C(C)[C@H]1C=C[C@@H](OC(C)=O)[C@@]2(COC(C)=O)[C@H](OC(=O)CCC)[C@H]3[C@@H](OC(C)=O)[C@@H](C)C[C@]3(O)C(=O)[C@@](C)(OC(C)=O)[C@H]12
inactive: A549 32.7 µM | M14 31.8 µM | K562 31.6 µM | U-251 33.9 µM | NCI-H522 56 µM | MDA-MB-435 15.3 µM | Malme-3M 45.3 µM | HCT-116 37.6 µM | SNB-75 46 µM | NCI-H460 21.2 µM | BT-549 58.2 µM | SN12C 36 µM | RXF 393 > 100 µM | HOP-92 3.53 µM | 786-0 39.7 µM | PC-3 31.6 µM | SW-620 55 µM

O=C1[C@H](O)[C@@H]2C(O)O[C@H]3[C@@H]2N1C[C@H]3[Si](c1ccccc1)(c1ccccc1)c1ccccc1 (stereo partly specified)
inactive: A549 > 100 µM | M14 > 100 µM | K562 > 100 µM | U-251 > 100 µM | MDA-MB-435 > 100 µM | HCT-116 > 100 µM | SNB-75 5.94 µM | NCI-H460 > 100 µM | BT-549 > 100 µM | RXF 393 20.2 µM | 786-0 > 100 µM | OVCAR-3 > 100 µM | PC-3 > 100 µM | SW-620 > 100 µM

C[C@@]12[C@H]3CC[C@@H]1[C@H](O)C(=O)N2CC3
inactive: A549 > 100 µM | M14 > 100 µM | K562 > 100 µM | MDA-N > 100 µM | U-251 > 100 µM | NCI-H522 > 100 µM | MDA-MB-435 > 100 µM | Malme-3M > 100 µM | SNB-75 > 100 µM | NCI-H460 > 100 µM | RXF 393 > 100 µM | HOP-92 > 100 µM | 786-0 > 100 µM | OVCAR-3 > 100 µM | PC-3 > 100 µM | SW-620 > 100 µM

O=c1ssc2ncccc12
inactive: A549 14.9 µM | M14 17.9 µM | K562 9.66 µM | MDA-N 19 µM | U-251 15.7 µM | NCI-H522 7.8 µM | MDA-MB-435 15.4 µM | Malme-3M 19.8 µM | HCT-116 15.2 µM | SNB-75 14.4 µM | NCI-H460 20.4 µM | SN12C 15.1 µM | RXF 393 18.1 µM | HOP-92 > 100 µM | 786-0 16.9 µM | OVCAR-3 18.4 µM | PC-3 44 µM | SW-620 19.7 µM
